Laboratory results taken from US10280171B2, “Heterocyclic inhibitors of PTPN11” (priority 2016, dated 2019).
Where two headings read alike, the source gives them in different places.

Legend:
[1] = test system: Phospho-ERK levels in KYSE-520 cells; experiment: ERK Phosphorylation (Phospho-ERK) Target Engagement Assay (HTRF); assay type: cell-based; details: Homo sapiens, 2 hr compound incubation, phospho-ERK1/2 HTRF kit, read-out: pERK target engagement assay Avg IC50
Description: KYSE-520 cells (10 k cells/well) are plated onto 384-well plate in 20 uL of medium (RPMI-1640, without phenol red, containing 10% FBS) and incubated at 37° C., 5% CO2 16 h. DMSO (control) or increasing concentrations of compounds are diluted in medium, added to the 384-well plate (10 uL/well, final DMSO concentration of 0.5-1%), and cells are then incubated with compounds for 2 hr. Phospho-ERK levels are measured using a TR-FRET based phospho-ERK1/2 HTRF kit (CisBio, 64ERKPEH) following manufacturer's recommendations, and fluorescence signal was measured at 665 nm and 620 nm using Synergy Neo plate reader. Dose-response curves were analyzed using IC50 regression curve fitting (GeneData Screener). Curves were normalized to a high controls without inhibitor, and low controls with 1 μM of selumetinib.

[2] = test system: BT474 human breast carcinomas cell line; experiment: In Vivo Tumor Models: BT474 xenograft; details: BT474 (HER2+) xenograft in mouse, 100 mg/kg once per day oral gavage, 5 days on/2 days off, 4 weeks
Description: Xenografts were initiated with BT474 human breast carcinomas cell line and maintained by serial subcutaneous transplantation in CB-17/SCID mice (Charles River). On the day of tumor implant, each test mouse received a 1 mm^3 BT474 fragment implanted subcutaneously in the right flank, and tumor growth was monitored as the average size approached the target range of 100 to 150 mm3. About three weeks post-implantation, the animals were randomized and grouped based on tumor volume and mouse body weight. […] Tumors were measured in two dimensions using calipers, and volume was calculated using the formula: Tumor Volume (mm^3)=[…].
Results are found in FIGS. 1 and 2.

[3] = molecular target: PTPN11-E76K mutant enzyme (Homo sapiens (Human), UniProt Q06124, E76K); experiment: PTPN11 Enzymatic Assay (DiFMUP phosphatase activity); assay type: biochemical; details: DiFMUP 50 μM, 30 min preincubation
Description: Reaction was initiated by addition of DiFMUP (50 μM) at room temperature in 384-well black plate with a final reaction volume of 20 uL in assay buffer. […] Dose-response curves were analyzed using IC50 regression curve fitting (GeneData Screener). Curves were normalized to a high controls without inhibitor, and low controls without enzyme.

[4] = test system: Phospho-ERK levels in KYSE-520 cells; experiment: pERK AlphaScreen Protocol; assay type: cell-based; details: Homo sapiens, KYSE-520, 2 h, KYSE-520 cells, 2 hr compound incubation, phospho-ERK1/2 AlphaScreen SureFire; read-out: PERK Avg IC50
Method in brief: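 After overnight growth at 10 k cells/well in RPMI-1640 with 10% FBS, KYSE-520 cells received compound dilutions for 2 h at 1% final DMSO.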

[5] = full length PTPN11-E76K mutant enzyme 250 pM, read-out: PTPN11-E76K Avg IC50

Sequence of PTPN11-E76K mutant enzyme (Q06124 whole entry E76K): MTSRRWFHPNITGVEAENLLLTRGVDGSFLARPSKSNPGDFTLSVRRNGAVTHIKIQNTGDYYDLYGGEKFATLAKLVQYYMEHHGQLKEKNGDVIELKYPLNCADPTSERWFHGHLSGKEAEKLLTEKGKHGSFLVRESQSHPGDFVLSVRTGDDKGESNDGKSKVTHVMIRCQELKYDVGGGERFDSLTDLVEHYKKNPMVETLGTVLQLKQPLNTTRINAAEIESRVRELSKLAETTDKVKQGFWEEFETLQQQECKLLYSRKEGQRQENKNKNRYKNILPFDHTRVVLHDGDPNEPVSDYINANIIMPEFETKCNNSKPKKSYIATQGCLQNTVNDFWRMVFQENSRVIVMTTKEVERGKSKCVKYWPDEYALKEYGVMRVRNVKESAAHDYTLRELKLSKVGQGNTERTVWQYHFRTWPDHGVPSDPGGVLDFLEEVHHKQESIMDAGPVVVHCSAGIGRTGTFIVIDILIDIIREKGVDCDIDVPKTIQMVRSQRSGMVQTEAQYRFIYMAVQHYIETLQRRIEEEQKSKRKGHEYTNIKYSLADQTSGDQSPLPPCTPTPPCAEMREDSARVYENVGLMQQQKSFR

| Compound | IC50 [3, 5] [µM] | IC50 [4] [µM] | further results |
| --- | --- | --- | --- |
| CC1(N)CCN(c2cnc3c(-c4cccc(Cl)c4Cl)n[nH]c3n2)CC1 [Example 1, 1-(3-(2,3-dichlorophenyl)-1H-pyrazolo[3,4-b]pyrazin-6-yl)-4-methylpiperidin-4-amine] |  |  | IC50 [1]: 0.049 µM; suppression of tumor growth [2]: significant suppression of tumor growth; tolerability of dose [2]: tolerated |
| Clc1cccc(-c2n[nH]c3nc(N4CCC5(CCNC5)CC4)cnc23)c1Cl [Example 2, 8-(3-(2,3-dichloro-phenyl)-1H-pyrazolo[3,4-b]-pyrazin-6-yl)-2,8-diazaspiro-[4.5]decane] | 0.787 |  | IC50 [1]: 0.169 µM |
| CC1(CN)CCN(c2cnc3c(-c4cccc(Cl)c4Cl)n[nH]c3n2)CC1 [Example 4, (1-(3-(2,3-dichloro-phenyl)-1H-pyrazolo[3,4-b]-pyrazin-6-yl)-4-methylpiperidin-4-yl)methanamine] |  |  | IC50 [1]: 0.073 µM |
| N[C@@H]1CCCC12CCN(c1cnc3c(-c4cccc(Cl)c4F)n[nH]c3n1)CC2 [Example 49, (R)-8-(3-(3-chloro-2-fluorophenyl)-1H-pyrazolo[3,4-b]-pyrazin-6-yl)-8-aza-spiro[4.5]decan-1-amine] | 0.143 | 0.062 |  |
| Nc1nccc(-c2n[nH]c3nc(N4CCC5(CC4)COC[C@H]5N)cnc23)c1Cl [Example 116, (S)-8-(3-(2-Amino-3-chloropyridin-4-yl)-1H-pyrazolo[3,4-b]pyrazin-6-yl)-2-oxa-8-azaspiro[4.5]decan-4-amine] | 0.132 | 0.483 |  |
| N[C@@H]1CCCC12CCN(c1cnc3c(-c4cccc(C(F)(F)F)c4)n[nH]c3n1)CC2 [Example 48, (R)-8-(3-(3-(trifluoromethyl)-phenyl)-1H-pyrazolo[3,4-b]pyrazin-6-yl)-8-azaspiro[4.5]decan-1-amine] | 1.76 | 0.586 |  |
| NC1(CO)CCN(c2cnc3c(-c4cccc(Cl)c4Cl)n[nH]c3n2)CC1 [Example 57, (4-Amino-1-(3-(2,3-dichlorophenyl)-1H-pyrazolo[3,4-b]pyrazin-6-yl)piperidin-4-yl)-methanol] | 0.104 | 0.053 |  |
| CC1(N)CCN(c2cnc3c(-c4ccnc(O)c4Cl)n[nH]c3n2)CC1 [Example 117, 4-(6-(4-Amino-4-methylpiperidin-1-yl)-1H-pyrazolo[3,4-b]pyrazin-3-yl)-3-chloropyridin-2-ol] | 1.94 | 4.78 |  |
| N[C@@H]1[C@H]2CN(c3cnc4c(-c5cccc(Cl)c5Cl)n[nH]c4n3)C[C@@H]12 [Example 3, (1R,5S,6S)-3-(3-(2,3-dichlorophenyl)-1H-pyrazolo[3,4-b]-pyrazin-6-yl)-3-aza-bicyclo[3.1.0]hexan-6-amine] | 1.07 |  | IC50 [1]: 0.322 µM |
| CC1(CN)CCN(c2cnc3c(-c4ccnc(N)c4Cl)n[nH]c3n2)CC1 [Example 107, 4-(6-(4-(Aminomethyl)-4-methylpiperidin-1-yl)-1H-pyrazolo[3,4-b]pyrazin-3-yl)-3-chloropyridin-2-amine] | 0.162 | 0.246 |  |
| NCC1(O)CCN(c2cnc3c(-c4cccc(F)c4Cl)n[nH]c3n2)CC1 [Example 37, 4-(Aminomethyl)-1-(3-(2-chloro-3-fluorophenyl)-1H-pyrazolo[3,4-b]pyrazin-6-yl)-piperidin-4-ol] | 0.623 | 0.223 |  |
| CC1(CN)CCN(c2cnc3c(-c4cccc(C(F)(F)F)c4)n[nH]c3n2)CC1 [Example 22, (4-methyl-1-(3-(3-(trifluoromethyl)-phenyl)-1H-pyrazolo[3,4-b]pyrazin-6-yl)-piperidin-4-yl)-methanamine] | 1.75 | 0.976 |  |
| COc1cccc(-c2n[nH]c3nc(N4CCC5(CCC[C@H]5N)CC4)cnc23)c1Cl [Example 50, (R)-8-(3-(2-chloro-3-methoxyphenyl)-1H-pyrazolo[3,4-b]pyrazin-6-yl)-8-azaspiro[4.5]decan-1-amine] | 0.039 | 0.034 |  |
| NCC1(O)CCN(c2cnc3c(-c4ccnc(N)c4Cl)n[nH]c3n2)CC1 [Example 114, 1-(3-(2-Amino-3-chloropyridin-4-yl)-1H-pyrazolo[3,4-b]pyrazin-6-yl)-4-(aminomethyl)piperidin-4-ol] | 0.779 | 2.49 |  |
| NCC1(O)CCN(c2cnc3c(-c4ccccc4Cl)n[nH]c3n2)CC1 [Example 60, 4-(aminomethyl)-1-(3-(2-chlorophenyl)-1H-pyrazolo[3,4-b]-pyrazin-6-yl)-piperidin-4-ol] | 0.918 | 0.317 |  |
| COc1cccc(-c2n[nH]c3nc(N4CCC(C)(CN)CC4)cnc23)c1Cl [Example 27, (1-(3-(2-chloro-3-methoxy phenyl)-1H-pyrazolo[3,4-b]pyrazin-6-yl)-4-methylpiperidin-4-yl) methanamine] | 0.08 | 0.055 |  |
| NC1C(F)(F)CCC12CCN(c1cnc3c(-c4cccc(Cl)c4Cl)n[nH]c3n1)CC2 (single isomer, unassigned; isomer a) [Example 65A, 8-(3-(2,3-Dichlorophenyl)-1H-pyrazolo[3,4-b]pyrazin-6-yl)-2,2-difluoro-8-azaspiro[4.5]decan-1-amine, isomer A] |  | 0.093 | IC50 ([3]; PTPN11-E76K Avg IC50, full length PTPN11-E76K mutant enzyme 250 pM): 0.235 µM |
| CC1(N)CCN(c2cnc3c(-c4ccccc4Cl)n[nH]c3n2)CC1 [Example 20, 1-(3-(2-Chlorophenyl)-1H-pyrazolo[3,4-b]pyrazin-6-yl)-4-methylpiperidin-4-amine] | 0.326 | 0.158 |  |
| CNc1nccc(-c2n[nH]c3nc(N4CCC(C)(CN)CC4)cnc23)c1Cl [Example 104, 4-(6-(4-(Aminomethyl)-4-methylpiperidin-1-yl)-1H-pyrazolo[3,4-b]pyrazin-3-yl)-3-chloro-N-methylpyridin-2-amine] | 0.099 | 0.047 |  |
| CC1(N)CCN(c2cnc3c(-c4ccnc(N)c4Cl)n[nH]c3n2)CC1 [Example 106, 4-(6-(4-Amino-4-methylpiperidin-1-yl)-1H-pyrazolo[3,4-b]pyrazine-3-yl)-3-chloropyridin-2-amine] | 0.253 | 0.174 |  |
| NC1(CO)CCN(c2cnc3c(-c4ccccc4Cl)n[nH]c3n2)CC1 [Example 61, (4-amino-1-(3-(2-chlorophenyl)-1H-pyrazolo[3,4-b]-pyrazin-6-yl)-piperidin-4-yl)-methanol] | 0.401 | 0.221 |  |
| CC1(CN)CCN(c2cnc3c(-c4ccc(Cl)cc4)n[nH]c3n2)CC1 [Example 16] | 0.169 | 0.309 |  |
| CNC1(C)CCN(c2cnc3c(-c4cccc(Cl)c4Cl)n[nH]c3n2)CC1 [Example 6, 1-(3-(2,3-Dichlorophenyl)-1H-pyrazolo[3,4-b]-pyrazin-6-yl)-N,4-dimethylpiperidin-4-amine] | 0.002 |  | IC50 [1]: 0.124 µM |
| CC1(N)CCN(c2cnc3c(-c4cccc(N)c4Cl)n[nH]c3n2)CC1 [Example 105, 1-(3-(3-amino-2-chlorophenyl)-1H-pyrazolo[3,4-b]pyrazin-6-yl)-4-methylpiperidin-4-amine] | 0.191 | 0.12 |  |
| CC1(N)CCN(c2cnc3c(-c4cccc(C(F)(F)F)c4)n[nH]c3n2)CC1 [Example 21, 4-Methyl-1-(3-(3-(trifluoromethyl)phenyl)-1H-pyrazolo[3,4-b]pyrazin-6-yl)piperidin-4-amine] | 0.956 | 0.62 |  |
